Data from US20260242395A1, “AMINOHETEROARYL KINASE INHIBITORS” (ALLORION THERAPEUTICS INC, priority 2022, published 2026).

Key:
Type in all cases: biochemical
[1] = molecular target: T1, CDK4/CyclinD1 (Homo sapiens, UniProt P11802); experiment: CDK4/CyclinD1 kinase inhibitory activity (Caliper mobility shift); settings: enzyme 20 nM, ATP 672 uM, 28° C. 30 min; read-out: CDK4/Cyclin D1 IC50
T1 construct: purchased ProQinase 0142-0143-1
Outline: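 Recombinant CDK4/Cyclin D1 (20 nM final) preincubated 10 min at room temperature with compound in HEPES pH 7.5 buffer with MgCl2, DTT and Triton X-100. Reaction started with 3000 nM FAM-labelled peptide and 672 uM ATP, run 30 min at 28° C, stopped with EDTA. Mobility-shift % conversion gave % inhibition, and IC50 came from dose-response fits.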

[2] = molecular target: T2, CDK6/CyclinD3 (Homo sapiens, UniProt Q00534); experiment: CDK6/CyclinD3 kinase inhibitory activity (Caliper mobility shift); settings: enzyme 15 nM, ATP 800 μM, 28° C. 30 min; read-out: CDK6/Cyclin D3 IC50
T2 construct: purchased Carna 04-107
T2 sequence (Q00534 whole entry): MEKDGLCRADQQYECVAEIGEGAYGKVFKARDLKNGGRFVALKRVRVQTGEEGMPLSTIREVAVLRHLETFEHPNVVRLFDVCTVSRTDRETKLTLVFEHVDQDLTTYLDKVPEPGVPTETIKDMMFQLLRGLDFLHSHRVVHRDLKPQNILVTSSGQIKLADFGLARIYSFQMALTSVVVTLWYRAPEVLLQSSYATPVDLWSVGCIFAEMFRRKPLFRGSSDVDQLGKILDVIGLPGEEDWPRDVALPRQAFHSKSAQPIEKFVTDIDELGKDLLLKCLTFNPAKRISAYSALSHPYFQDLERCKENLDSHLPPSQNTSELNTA
T2 sequence (P30281 whole entry partner): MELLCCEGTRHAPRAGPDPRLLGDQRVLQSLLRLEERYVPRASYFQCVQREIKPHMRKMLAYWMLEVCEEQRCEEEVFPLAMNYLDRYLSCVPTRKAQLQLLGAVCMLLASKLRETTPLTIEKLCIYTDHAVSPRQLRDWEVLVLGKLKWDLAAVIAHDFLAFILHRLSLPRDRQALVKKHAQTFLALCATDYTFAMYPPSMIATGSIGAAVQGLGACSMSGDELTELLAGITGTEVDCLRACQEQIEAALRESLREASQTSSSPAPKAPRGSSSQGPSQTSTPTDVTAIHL
Outline: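 Compound preincubated 10 min at room temperature with CDK6/CyclinD3 (15 nM final) in HEPES pH 7.5/MgCl2/DTT buffer; reaction with 5-FAM peptide (3000 nM) and ATP 800 μM, 30 min at 28°C, stopped with EDTA. Substrate/product separated by microfluidic mobility shift; % conversion converted to % inhibition, IC50 from dose-response curves.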

[3] = molecular target: T3, CDK2/CyclinE1 (Homo sapiens, UniProt P24941); experiment: CDK2/CyclinE1 kinase inhibitory activity (Caliper mobility shift); settings: enzyme 3 nM, ATP 77 μM, 28° C. 30 min; read-out: CDK2/Cyclin E1 IC50
T3 construct: purchased Carna 04-165
Description: CDK2/CyclinE1 kinase inhibitory activity (IC50): 5 μl of various dilutions of test compounds in 1×kinase buffer (50 mM HEPES pH 7.5, 10 mM MgCl2, 2 mM DTT and […] Brij-35) were mixed with 10 μL of CDK2/CyclinE1 (Carna, 04-165 #, final concentration 3 nM in 1×Kinase buffer) in 384 plates and incubated at room temperature for 10 min. To initiate each reaction, 10 μL of peptide solution containing fluorescently-labeled-peptide 18(5-FAM-QSPKKG-CONH2) (GL, 114202 #, final concentration 3000 nM) and ATP (final concentration 77 μM) in 1×Kinase buffer was added to each of the wells containing test compound and CDK2/CyclinE1 mixture. The reaction was then allowed to proceed at 28° C. for 30 min and terminated by the addition of 25 μL stop buffer (100 mM HEPES pH 7.5, 50 mM EDTA, 0.2% Coating Reagent #3 (Perkin Elmer, 760050 #) and 0.015% Brij-35).
Following the kinase reaction, Caliper EZ reader II (Downstream voltages: −500V, Upstream voltages: −2250V, Base pressure −0.5 PSI, Screen pressure −1.2 PSI) was used to separate the phosphorylated (product) and the unphosphorylated (substrate) fluorescently-labeled peptide 18 based on their different mobility. Both substrate and product were measured and the ratio of these values were used to generate % conversion by Caliper EZ reader II. These conversion values were then transformed into % inhibition of kinase activity using the formula: % Inhibition=[(MA−X)/(MA−MI)]×100% where MA=conversion value of DMSO only controls, MI=conversion value of no enzyme controls and X=conversion value at any given compound dose. IC50 values were then calculated by plotting dose-response curves and then using the XLfit application in Excel software.

T1 sequence (P11802 whole entry): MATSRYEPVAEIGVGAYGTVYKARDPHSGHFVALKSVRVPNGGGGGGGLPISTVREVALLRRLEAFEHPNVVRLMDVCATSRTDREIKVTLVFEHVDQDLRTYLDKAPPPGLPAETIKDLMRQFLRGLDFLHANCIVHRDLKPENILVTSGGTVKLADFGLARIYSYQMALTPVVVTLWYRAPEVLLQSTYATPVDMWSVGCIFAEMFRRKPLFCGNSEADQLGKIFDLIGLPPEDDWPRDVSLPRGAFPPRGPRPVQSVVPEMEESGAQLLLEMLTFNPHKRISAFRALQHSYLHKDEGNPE
T1 sequence (P24385 whole entry partner): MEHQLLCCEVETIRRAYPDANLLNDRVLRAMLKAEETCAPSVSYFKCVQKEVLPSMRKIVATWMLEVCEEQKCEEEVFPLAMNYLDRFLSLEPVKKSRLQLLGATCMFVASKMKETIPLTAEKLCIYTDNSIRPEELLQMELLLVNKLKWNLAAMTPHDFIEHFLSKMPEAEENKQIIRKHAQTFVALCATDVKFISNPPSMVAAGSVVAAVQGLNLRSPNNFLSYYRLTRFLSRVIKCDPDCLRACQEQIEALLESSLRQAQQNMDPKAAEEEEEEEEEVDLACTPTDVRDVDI

Compound | IC50 [1] [nM] | IC50 [2] [nM] | IC50 [3] [nM]
Cc1nc2c(F)cc(-c3nc(N[C@@H]4CCOC[C@H]4O)ncc3Cl)cc2c(C)c1[C@@H](C)O (single isomer, unassigned) [Example 15a] | < 10 | 10 to 100 | 100 to 1000
Cc1nc2c(F)cc(-c3nc(N[C@@H]4CCOC[C@H]4O)ncc3Cl)cc2c(C)c1[C@H](C)O (single isomer, unassigned) [Example 15b] | < 10 | 10 to 100 | 100 to 1000
O[C@@H]1COCC[C@H]1Nc1ncc(Cl)c(-c2cc(F)c3ncc4c(c3c2)C2CCC(C4)N2)n1 (single isomer, unassigned) [Example 20b] | < 10 | 100 to 1000 | 100 to 1000
CNC(C)c1cnc2c(F)cc(-c3nc(N[C@@H]4CCOC[C@H]4O)ncc3Cl)cc2c1 (single isomer, unassigned) [Example 32a] | < 10 | 100 to 1000 | 10 to 100
CC1Cc2cnc3c(F)cc(-c4nc(N[C@@H]5CCOC[C@H]5O)ncc4Cl)cc3c2CN1 (single isomer, unassigned) [Example 34a] | < 10 | 10 to 100 | 10 to 100
CC1Cc2cnc3c(F)cc(-c4nc(N[C@@H]5CCOC[C@H]5O)ncc4Cl)cc3c2CN1 (single isomer, unassigned) [Example 34b] | < 10 | 100 to 1000 | 100 to 1000
Cc1nc2c(F)cc(-c3nc(N[C@@H]4CCOC[C@H]4O)ncc3Cl)cc2c(Cl)c1C(C)O (single isomer, unassigned) [Example 35a] | < 10 | 10 to 100 | 100 to 1000
Cc1nc2c(F)cc(-c3nc(N[C@@H]4CCOC[C@H]4O)ncc3Cl)cc2c(Cl)c1C(C)O (single isomer, unassigned) [Example 35b] | < 10 | 100 to 1000 | 100 to 1000
CC(O)c1cnc2c(F)cc(-c3nc(N[C@@H]4CCOC[C@H]4O)ncc3Cl)cc2c1Cl (single isomer, unassigned) [Example 40a] | < 10 | 100 to 1000 | 100 to 1000
CNC(C)c1cc2cc(-c3nc(N[C@@H]4CCOC[C@H]4O)ncc3Cl)cc(F)c2nc1C (single isomer, unassigned) [Example 45a] | < 10 | 100 to 1000 | 100 to 1000
CNC(C)c1cc2cc(-c3nc(N[C@@H]4CCOC[C@H]4O)ncc3Cl)cc(F)c2nc1C (single isomer, unassigned) [Example 45b] | < 10 | 100 to 1000 | ≥ 1000
Cc1nc2c(F)cc(-c3nc(N[C@@H]4CCOC[C@H]4O)ncc3Cl)cc2cc1C1CCCN1 (single isomer, unassigned) [Example 57a] | < 10 | 100 to 1000 | 100 to 1000
Cc1nc2c(F)cc(-c3nc(N[C@@H]4CCOC[C@H]4O)ncc3Cl)cc2cc1C(C)NC1CC1 (single isomer, unassigned) [Example 73b] | < 10 | 10 to 100 | 100 to 1000
Cc1nc2c(F)cc(-c3nc(N[C@@H]4CCOC[C@H]4O)ncc3F)cc2c(C)c1C(C)O (single isomer, unassigned) [Example 81a] | < 10 | 10 to 100 | 100 to 1000
Cc1nc2c(F)cc(-c3nc(N[C@@H]4CCOC[C@H]4O)ncc3F)cc2c(C)c1C(C)O (single isomer, unassigned) [Example 81b] | < 10 | 10 to 100 | 100 to 1000
Cc1c(C(C)O)cnc2c(F)cc(-c3nc(N[C@@H]4CCOC[C@H]4O)ncc3Cl)cc12 (single isomer, unassigned) [Example 88a] | < 10 | 10 to 100 | 100 to 1000
Cc1c(C(C)NC2CC2)cnc2c(F)cc(-c3nc(N[C@@H]4CCOC[C@H]4O)ncc3Cl)cc12 (single isomer, unassigned) [Example 91b] | < 10 | 100 to 1000 | 100 to 1000
CC1(C)NCc2c(cnc3c(F)cc(-c4nc(N[C@@H]5CCOC[C@H]5O)ncc4F)cc23)C1O (single isomer, unassigned) [Example 106b] | < 10 | 10 to 100 | 100 to 1000
CC(C)(O)c1cnc2c(F)cc(-c3nc(N[C@@H]4CCOC[C@H]4O)ncc3Cl)cc2c1 [Example 1, (3S,4R)-4-((5-chloro-4-(8-fluoro-3-(2-hydroxypropan-2-yl)quinolin-6-yl)pyrimidin-2-yl)amino)tetrahydro-2H-pyran-3-ol] | < 10 | 100 to 1000 | ≥ 1000
Cc1nc2c(F)cc(-c3nc(N[C@@H]4CCOC[C@H]4O)ncc3Cl)cc2cc1C(C)(C)O [Example 5, (3S,4R)-4-((5-chloro-4-(8-fluoro-3-(2-hydroxypropan-2-yl)-2-methylquinolin-6-yl)pyrimidin-2-yl)amino)tetrahydro-2H-pyran-3-ol] | < 10 | 100 to 1000 | 100 to 1000
Cc1c(C(C)(C)O)cnc2c(F)cc(-c3nc(N[C@@H]4CCOC[C@H]4O)ncc3Cl)cc12 [Example 7, (3S,4R)-4-((5-chloro-4-(8-fluoro-3-(2-hydroxypropan-2-yl)-4-methylquinolin-6-yl)pyrimidin-2-yl)amino)tetrahydro-2H-pyran-3-ol] | < 10 | 10 to 100 | 100 to 1000
O[C@@H]1COCC[C@H]1Nc1ncc(Cl)c(-c2cc(F)c3ncc4c(c3c2)CCNC4)n1 [Example 8, (3S,4R)-4-((5-chloro-4-(7-fluoro-1,2,3,4-tetrahydrobenzo[c][2,7]naphthyridin-9-yl)pyrimidin-2-yl)amino)tetrahydro-2H-pyran-3-ol] | < 10 | 10 to 100 | < 10
O[C@@H]1COCC[C@H]1Nc1ncc(Cl)c(-c2cc(F)c3ncc4c(c3c2)CNCC4)n1 [Example 9, (3S,4R)-4-((5-chloro-4-(7-fluoro-1,2,3,4-tetrahydrobenzo[c][2,6]naphthyridin-9-yl)pyrimidin-2-yl)amino)tetrahydro-2H-pyran-3-ol] | < 10 | 100 to 1000 | 100 to 1000
CC(C)n1c(C(C)(C)O)nc2c(F)cc(-c3cc(N[C@@H]4CCOC[C@H]4O)ncc3Cl)cc21 [Example 12, (3S,4R)-4-((5-chloro-4-(4-fluoro-2-(2-hydroxypropan-2-yl)-1-isopropyl-1H-benzo[d]imidazol-6-yl)pyridin-2-yl)amino)tetrahydro-2H-pyran-3-ol] | 10 to 100 | 100 to 1000 | ≥ 1000
CC(C)(N)c1cnc2c(F)cc(-c3nc(N[C@@H]4CCOC[C@H]4O)ncc3Cl)cc2c1 [Example 14, (3S,4R)-4-((4-(3-(2-aminopropan-2-yl)-8-fluoroquinolin-6-yl)-5-chloropyrimidin-2-yl)amino)tetrahydro-2H-pyran-3-ol] | < 10 | 100 to 1000 | 10 to 100
CC(C)(O)c1cnc2c(F)cc(-c3nc(N[C@@H]4CCOC[C@H]4O)ncc3Cl)cc2c1Cl [Example 17, (3S,4R)-4-((5-chloro-4-(4-chloro-8-fluoro-3-(2-hydroxypropan-2-yl)quinolin-6-yl)pyrimidin-2-yl)amino)tetrahydro-2H-pyran-3-ol] | < 10 | 10 to 100 | 100 to 1000
